Assay results: article PMC4965013, “Open Source Drug Discovery with the Malaria Box Compound Collection for Neglected Diseases and Beyond” (PLoS Pathogens, 2016)

Experiments:
[1] = system: P. falciparum 3D7 trophozoites; assay: Metabolomic fingerprint profiling LC-MS; type: cell-based, Plasmodium falciparum; parameters: UDP-D-glucose / ADP-D-glucose: unit not given here; conditions: for Acetyllysine / N-acetyl-L-ornithine / N-carbamoyl-L-aspartate / NADPH / dAMP / dCMP / dTDP / dTMP / dTTP / dihydroorotate / orotate / DLH / DLS/SDL/SID / PD / PEE / PVNF / 3-phosphoglycerate / ADP-D-glucose / ATP / CDP / D-sedoheptulose-1/7-phosphate / FAD / GMP / NAD+ / NADP+ / Octoluse Bisphosphate / Pyroglutamic acid / UDP-D-glucose / UDP-D-glucuronate / UDP-N-acetyl-glucosamine / UDP / UMP / UTP / a-ketoglutarate / citrate/isocitrate / cytidine / dATP / dGMP/AMP / fumarate / glucose-1/6-phosphate / glycerate / guanine / guanosine / hypoxanthine / indole / inosine / nicotinate / ornithine / phosphoenolpyruvate / pyruvate / ribose-phosphate / sarcosine/alanine / sn-glycerol-3-phosphate / succinate/methylmalonic acid / uridine / xanthosine: S2 Table Metabolomics; for Acetyllysine: metabolite Acetyllysine; for N-acetyl-L-ornithine: metabolite N-acetyl-L-ornithine; for N-carbamoyl-L-aspartate: metabolite N-carbamoyl-L-aspartate; for NADPH: metabolite NADPH; for dAMP: metabolite dAMP; for dCMP: metabolite dCMP; for dTDP: metabolite dTDP; for dTMP: metabolite dTMP; for dTTP: metabolite dTTP; for dihydroorotate: metabolite dihydroorotate; for orotate: metabolite orotate; for DLH: peptide DLH; for DLS/SDL/SID: peptide DLS/SDL/SID; for PD: peptide PD; for PEE: peptide PEE; for PVNF: peptide PVNF; for 3-phosphoglycerate: metabolite 3-phosphoglycerate; for ADP-D-glucose: metabolite ADP-D-glucose; for ATP: metabolite ATP; for CDP: metabolite CDP; for CDP / D-sedoheptulose-1/7-phosphate / GMP / Octoluse Bisphosphate / UDP / UMP / UTP / citrate/isocitrate / dGMP/AMP / fumarate / glucose-1/6-phosphate / glycerate / guanine / guanosine / inosine / pyruvate / sarcosine/alanine / succinate/methylmalonic acid / uridine / xanthosine: change in metabolite level after compound treatment; for D-sedoheptulose-1/7-phosphate: metabolite D-sedoheptulose-1/7-phosphate; for FAD: metabolite FAD; for GMP: metabolite GMP; for NAD+: metabolite NAD+; for NADP+: metabolite NADP+; for Octoluse Bisphosphate: metabolite Octoluse Bisphosphate; for Pyroglutamic acid: metabolite Pyroglutamic acid; for UDP-D-glucose: metabolite UDP-D-glucose; for UDP-D-glucuronate: metabolite UDP-D-glucuronate; for UDP-N-acetyl-glucosamine: metabolite UDP-N-acetyl-glucosamine; for UDP: metabolite UDP; for UMP: metabolite UMP; for UTP: metabolite UTP; for a-ketoglutarate: metabolite a-ketoglutarate; for citrate/isocitrate: metabolite citrate/isocitrate; for cytidine: metabolite cytidine; for dATP: metabolite dATP; for dGMP/AMP: metabolite dGMP/AMP; for fumarate: metabolite fumarate; for glucose-1/6-phosphate: metabolite glucose-1/6-phosphate; for glycerate: metabolite glycerate; for guanine: metabolite guanine; for guanosine: metabolite guanosine; for hypoxanthine: metabolite hypoxanthine; for indole: metabolite indole; for inosine: metabolite inosine; for 2_3-Diphosphoglyceric acid / 4-phosphopantothenate / 6-phospho-D-gluconate / FMN / IMP / Pyrophosphate / Sedoheptoluse bisphosphate / cyclic-AMP / glutathione disulfide / lactate / myo-inositol: metabolite level change after treatment; for nicotinate: metabolite nicotinate; for ornithine: metabolite ornithine; for phosphoenolpyruvate: metabolite phosphoenolpyruvate; for pyruvate: metabolite pyruvate; for ribose-phosphate: metabolite ribose-phosphate; for sarcosine/alanine: metabolite sarcosine/alanine; for sn-glycerol-3-phosphate: metabolite sn-glycerol-3-phosphate; for succinate/methylmalonic acid: metabolite succinate/methylmalonic acid; for uridine: metabolite uridine; for xanthosine: metabolite xanthosine
P. falciparum = assay: EC50 listed in S2 Table Metabolomics (used to set the concentration tested); type: cell-based; conditions: Plasmodium falciparum; EC50 used for Factor_XEC50 in metabolomics; read-out: EC50_nM

Cc1ccc(-c2cc3nc4c(c(O)n3n2)CCCC4)cc1 [MMV006937]
Acetyllysine [1]: 0.001543 | N-acetyl-L-ornithine [1]: -0.1685 | N-carbamoyl-L-aspartate [1]: 1.991 | NADPH [1]: -0.4265 | dAMP [1]: -0.0863 | dCMP [1]: -1.279 | dTDP [1]: -1.586 | dTMP [1]: -1.181 | dTTP [1]: -2.058 | dihydroorotate [1]: 2.759 | orotate [1]: -1.871 | DLH [1]: -0.331 | DLS/SDL/SID [1]: -0.7353 | PD [1]: 0.3712 | PEE [1]: -0.2807 | PVNF [1]: -1.612 | 3-phosphoglycerate [1]: -0.6487 | ADP-D-glucose [1]: -0.1406 | ATP [1]: -0.4135 | CDP [1]: -1.006 | D-sedoheptulose-1/7-phosphate [1]: 0.1087 | FAD [1]: 0.1332 | GMP [1]: -0.07362 | NAD+ [1]: 1.3162 | NADP+ [1]: -0.2641 | Octoluse Bisphosphate [1]: -0.3 | Pyroglutamic acid [1]: -0.3275 | UDP-D-glucose [1]: -0.04224 | UDP-D-glucuronate [1]: -0.6063 | UDP-N-acetyl-glucosamine [1]: -0.2962 | UDP [1]: -1.454 | UMP [1]: -1.3 | UTP [1]: -2.161 | a-ketoglutarate [1]: -0.5175 | citrate/isocitrate [1]: -0.9752 | cytidine [1]: 0.2747 | dATP [1]: 0.08499 | dGMP/AMP [1]: -0.2088 | fumarate [1]: 0.7624 | glucose-1/6-phosphate [1]: -0.09446 | glycerate [1]: 0.7002 | guanine [1]: 0.3064 | guanosine [1]: 0.2389 | hypoxanthine [1]: -0.05386 | indole [1]: -0.1272 | inosine [1]: -0.07571 | 2_3-Diphosphoglyceric acid [1]: -0.6436 | 4-phosphopantothenate [1]: -0.3901 | 6-phospho-D-gluconate [1]: -0.1214 | FMN [1]: -0.5746 | IMP [1]: 0.1416 | Pyrophosphate [1]: -0.6696 | Sedoheptoluse bisphosphate [1]: 0.01407 | cyclic-AMP [1]: -0.2332 | glutathione disulfide [1]: 0.02779 | lactate [1]: -0.3487 | myo-inositol [1]: 0.03438 | nicotinate [1]: -0.2273 | ornithine [1]: -0.08655 | phosphoenolpyruvate [1]: -0.5043 | pyruvate [1]: -0.2395 | ribose-phosphate [1]: 0.1461 | sarcosine/alanine [1]: 0.1551 | sn-glycerol-3-phosphate [1]: -0.1355 | succinate/methylmalonic acid [1]: -0.2134 | uridine [1]: -0.8059 | xanthosine [1]: -0.1801 | EC50 (P. falciparum): 396 nM

CCOC(=O)c1cnc2ccc(CC)cc2c1O [MMV007116]
Acetyllysine [1]: -0.1012 | N-acetyl-L-ornithine [1]: 0.0981 | N-carbamoyl-L-aspartate [1]: 2.971 | NADPH [1]: -0.5029 | dAMP [1]: -0.4219 | dCMP [1]: 0.4317 | dTDP [1]: -1.171 | dTMP [1]: -0.8513 | dTTP [1]: -0.7029 | dihydroorotate [1]: 3.788 | orotate [1]: -1.509 | DLH [1]: 0.2963 | DLS/SDL/SID [1]: 0.1623 | PD [1]: 0.3262 | PEE [1]: 0.1615 | PVNF [1]: 0.2601 | 3-phosphoglycerate [1]: -0.1794 | ADP-D-glucose [1]: 0.1742 | ATP [1]: 0.4661 | CDP [1]: -0.7049 | D-sedoheptulose-1/7-phosphate [1]: -0.06275 | FAD [1]: 0.2601 | GMP [1]: -0.15 | NAD+ [1]: 0.1229 | NADP+ [1]: 0.2138 | Octoluse Bisphosphate [1]: 0.1604 | Pyroglutamic acid [1]: 0.5147 | UDP-D-glucose [1]: 0.04103 | UDP-D-glucuronate [1]: 0.1753 | UDP-N-acetyl-glucosamine [1]: -0.1032 | UDP [1]: -1.173 | UMP [1]: -0.7684 | UTP [1]: -0.9344 | a-ketoglutarate [1]: -0.7057 | citrate/isocitrate [1]: -0.7167 | cytidine [1]: 0.3209 | dATP [1]: 0.325 | dGMP/AMP [1]: -0.3675 | fumarate [1]: 0.4728 | glucose-1/6-phosphate [1]: 0.07021 | glycerate [1]: -0.09904 | guanine [1]: -0.05466 | guanosine [1]: -0.14 | hypoxanthine [1]: -0.2065 | indole [1]: -0.3037 | inosine [1]: -0.2408 | 2_3-Diphosphoglyceric acid [1]: 0.3408 | 4-phosphopantothenate [1]: -0.2638 | 6-phospho-D-gluconate [1]: 0.07683 | FMN [1]: -0.08712 | IMP [1]: -0.2111 | Pyrophosphate [1]: 0.42 | Sedoheptoluse bisphosphate [1]: 0.05124 | cyclic-AMP [1]: 0.01532 | glutathione disulfide [1]: 0.02122 | lactate [1]: -0.5604 | myo-inositol [1]: -0.5893 | nicotinate [1]: -0.6598 | ornithine [1]: -0.07172 | phosphoenolpyruvate [1]: -0.09558 | pyruvate [1]: -0.6031 | ribose-phosphate [1]: 0.2426 | sarcosine/alanine [1]: -0.04206 | sn-glycerol-3-phosphate [1]: 0.1096 | succinate/methylmalonic acid [1]: 0.07837 | uridine [1]: -1.178 | xanthosine [1]: 0.04101 | EC50 (P. falciparum): 351 nM
